Test results published in patent publication US5475022A, “Phenyl or heteroaryl and tetrahydronaphthyl substituted diene compounds having retinoid like biological activity” (Allergan, Inc., priority 1993, dated 1995).
Like-named read-outs stand apart in the source and are kept apart here.

Tests used:
[1] = tested on: ornithine decarboxylase (ODC); experiment: inhibition of TPA induction of ornithine decarboxylase (ODC); format: cell-based; settings: read-out: % ODC Inhibition at 1.0 μM concentration
From the text: The retinoid-like activity of these compounds is confirmed through the classic measure of retinoic acid activity involving the effects of retinoic acid on ornithine decarboxylase. The original work on the correlation between retinoic acid and decrease in cell proliferation was done by Verma & Boutwell, Cancer Research, 1977, 37,2196-2201. That reference discloses that ornithine decarboxylase (ODC) activity increased precedent to polyamine biosynthesis. It has been established elsewhere that increases in polyamine synthesis can be correlated or associated with cellular proliferation. Thus, if ODC activity could be inhibited, cell hyperproliferation could be modulated. Although all causes for ODC activity increases are unknown, it is known that 12-0-tetradecanoylphorbol-13-acetate (TPA) induces ODC activity.

[2] = tested on: ornithine decarboxylase (ODC); settings: literature statement; cited from earlier work

| SMILES | inhibition at 1 µM ([1]; TPA-induced ODC activity) [%] | other results |
| --- | --- | --- |
| COC(=O)c1ccoc1/C=C/C=C(\C)c1cc2c(cc1C)C(C)(C)CCC2(C)C [Compound 1, Methyl 2-[4-methyl-4-(3,5,5,8,8-pentamethyl-5,6,7,8-tetrahydronaphthalene)-2-yl-1E,3E-butadien-1-yl]-furan-3-carboxylate] | 37 | – |
| COC(=O)c1ccoc1/C=C/C=C(/C)c1cc2c(cc1C)C(C)(C)CCC2(C)C [Compound 2, Methyl 2-[4-methyl-4-(3,5,5,8,8-pentamethyl-5,6,7,8-tetrahydronaphthalene)-2-yl-1E,3Z-butadien-1-yl]-furan-3-carboxylate] | 36 | – |
| COC(=O)c1ccccc1/C=C/C=C(\C)c1ccc2c(c1)C(C)(C)CCC2(C)C [Compound 6, Methyl 2-[4-methyl-4-(5,5,8,8-tetramethyl-5,6,7,8-tetrahydronaphthalene)-2-yl-1E,3E-butadien-1-yl]benzoate] | – | inhibition at 1 µM ([1]; value determined by linear regression of data collected at 30, 100, 300 nanomolar concentrations): 100% |
| C/C(=C\C=C\c1ccccc1C(=O)O)c1cc2c(cc1C)C(C)(C)CCC2(C)C [Compound 7, 2-[4-Methyl-4-(3,5,5,8,8-pentamethyl-5,6,7,8-tetrahydronaphthalene)-2-yl-1E,3E-butadien-1-yl]benzoic acid] | 79 | – |
| C/C(=C/C=C/c1ccccc1C(=O)O)c1cc2c(cc1C)C(C)(C)CCC2(C)C [Compound 8, 2-[4-Methyl4-(3,5,5,8,8-pentamethyl-5,6,7,8-tetrahydronaphthalene)-2-yl-1E,3Z-butadien-1-yl]benzoic acid] | 75 | – |
| C/C(=C/C=C/c1occc1C(=O)O)c1cc2c(cc1C)C(C)(C)CCC2(C)C [Compound 9, 2-[4-Methyl-4-(3,5,5,8,8-pentamethyl-5,6,7,8-tetrahydronaphthalene)-2-yl-1E,3Z-butadien-1-yl]-furan-3-carboxylic acid] | 56 | – |
| COC(=O)c1ccoc1/C=C/C=C(\C)c1ccc2c(c1)C(C)(C)CCC2(C)C [Compound 11, Methyl 2-[4-methyl-4-(5,5,8,8,-tetramethyl5,6,7,8,-tetrahydronaphthalen)-2-yl-1E,3E-butadien-1-yl] furan 3-carboxylate] | 26 | – |
| COC(=O)c1ccoc1/C=C/C=C(/C)c1ccc2c(c1)C(C)(C)CCC2(C)C [Compound 12, Methyl 2-[4-methyl-4-(5,5,8,8, -tetramethyl-5,6,7,8, -tetrahydronaphthalen)2-yl-1E, 3Z-butadien-1-yl] furan 3-carboxylate] | 42 | – |
| C/C(=C\C=C\c1occc1C(=O)O)c1ccc2c(c1)C(C)(C)CCC2(C)C [Compound 13, 2-[4-Methyl-4-(5,5,8,8,-tetramethyl-5,6,7,8,-tetrahydronaphthalen)-2-yl-1E,3E-butadien-1-yl] furan 3-carboxylic acid] | 60 | – |
| C/C(=C/C=C/c1occc1C(=O)O)c1ccc2c(c1)C(C)(C)CCC2(C)C [Compound 14, 2-[4-Methyl-4-(5,5,8,8,-tetramethyl-5,6,7,8-tetrahydronaphthalen)-2-yl-1E,3Z-butadien-1-yl] furan 3-carboxylic acid] | 72 | – |
| C/C(=C\C=C\c1ccsc1C(=O)O)c1cc2c(cc1C)C(C)(C)CCC2(C)C [Compound 17, 3-[4-Methyl-4-(3,5,5,8,8,-pentamethyl-5,6,7,8,-tetrahydronaphthalen)-2-yl-1E,3 E-butadien-1-yl]thiophene 2-carboxylic acid] | 79 | – |
| CCOC(=O)c1occc1/C=C\C=C(/C)c1cc2c(cc1C)C(C)(C)CCC2(C)C [Compound 19, Ethyl 3-[4-methyl-4-(3,5,5,8,8-pentamethyl-5,6,7,8-tetrahydronaphthalene)-2-yl-1Z, 3E-butadiene-1-yl]-2-furanoate] | 73 | – |
| COC(=O)c1ccccc1/C=C/C=C(\C)c1cc2c(cc1C)C(C)(C)CCC2(C)C [Compound 24, Methyl 2-[4-methyl-4-(3,5,5,8,8-pentametyl-5,6,7,8-tetrahydronaphthalene)-2-yl-1E,3E-butadien-1-yl]benzoate] | 88 | – |
| CC1=C(/C=C/C(C)=C/C=C/C(C)=C/C(=O)O)C(C)(C)CCC1 [Retinoic acid] | – | inhibition of induction of ODC activity by TPA [2]: inhibits this induction of ODC activity by TPA |
